Results reported in publication PMC9005971, “Discovery of 2-(4-Acrylamidophenyl)-Quinoline-4-Carboxylic Acid Derivatives as Potent SIRT3 Inhibitors” (Frontiers in Chemistry, 2022).

How the values were obtained:
MOLM-13 cells = assay: In vitro antiproliferative CCK-8 assay, MOLM-13; assay type: cell-based; details: Homo sapiens, 72 h, read-out: IC50 growth inhibition MOLM-13
Protocol: (§1) The proliferation of THP-1, MOLM-13, SEM and MV4-11 cells was tested by CCK-8 assay. Briefly, cells were seeded in 96-well plate with about 5 × 10^3 cells in each well. The cells were treated with P6 or Ara-C (0–10 µM) after 24 h of incubation. CCK-8 reagent ([…]) was added to each well after 72 h of incubation, and cells were incubated at 37°C for 4 h. The light absorbance at 450 nm was measured by using an Opsys microplate reader (Dynex Technologirs, Chantilly, VA, United States). Results are illustrated as percent of cell viability normalized to DMSO-treated control cells.

SIRT3 = molecular target: T1, SIRT3 (Homo sapiens, UniProt Q9NTG7); assay: SIRT3 enzyme inhibitory assay (fluorescence); assay type: biochemical; details: for activity at 0.01 µM / activity at 0.033 µM / activity at 0.1 µM / activity at 0.333 µM / activity at 1 µM / activity at 3.3 µM / activity at 10 µM / activity at 33 µM / activity at 100 µM: SIRT3 enzyme activity; for activity at 0.01 µM: 10 nM; for activity at 0.033 µM: 33 nM; for activity at 0.1 µM: 100 nM; for activity at 0.333 µM: 333 nM
T1 sequence (Q9NTG7 1-399): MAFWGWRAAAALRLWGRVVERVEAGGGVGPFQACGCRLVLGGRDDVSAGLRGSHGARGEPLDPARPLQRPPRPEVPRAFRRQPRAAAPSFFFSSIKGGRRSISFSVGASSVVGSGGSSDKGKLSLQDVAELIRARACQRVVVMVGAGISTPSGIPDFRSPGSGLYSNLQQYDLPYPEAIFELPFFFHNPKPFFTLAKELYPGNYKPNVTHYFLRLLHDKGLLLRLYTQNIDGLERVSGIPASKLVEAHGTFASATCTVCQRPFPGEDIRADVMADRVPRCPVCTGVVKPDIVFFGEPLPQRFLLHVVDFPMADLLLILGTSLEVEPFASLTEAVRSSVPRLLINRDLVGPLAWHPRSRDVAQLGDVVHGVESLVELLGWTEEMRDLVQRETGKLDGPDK
Protocol: All of the enzymatic reactions were conducted at 37°C for 30 min. […] The compounds were diluted in 10% DMSO and 5 ul of the dilution was added to each reaction mixture (50 ul). The assay was performed by quantitating the amount of fluorescent product generated from the enzyme reaction. Fluorescence intensity is then analyzed at excitation wavelength of 350–360 nm and emission wavelength of 450–460 nm on a SpectraMax M5 microtiter plate reader. The IC50 values were calculated using Prism GraphPad software.

[1] = tested on: THP-1, MOLM-13, SEM and MV4-11 cells; assay: Colony formation assay, MLLr leukemic cells; assay type: cell-based; details: 0.2–2.0 µM, 12 days
Protocol: (§2) THP-1, MOLM-13, SEM and MV4-11 cells were cultured with P6 (0–2.0 µM) in 2.6% methycellulose medium containing 10% FBS in a 24-well flat-bottomed plate for 12 days ([Qu et al., 2021]). The number of individual colonies consisting of more than approximately 50 cells was counted by a CX43 microscope (Olympus, Shinjuku-ku, Tokyo, Japan) with an Olympus EP50 camera (Olympus, Shinjuku-ku, Tokyo, Japan).

[2] = tested on: THP-1, MOLM-13, SEM and MV4-11 cells; assay: Cell apoptosis analysis, MLLr leukemic cells; assay type: cell-based; details: 72 h, flow cytometry
Protocol: THP-1, MOLM-13, SEM and MV4-11 cells were treated with P6 (0.45–4 µM) or Ara-C (0.1–2.0 µM) for 72 h, collected and resuspended in 1× binding buffer. Cells were incubated with FITC Annexin V and PI double labeling for 30 min in the dark at room temperature and measured by flow cytometry.

MV4-11 cells = assay: In vitro antiproliferative CCK-8 assay, MV4-11; assay type: cell-based; details: Homo sapiens, 72 h, read-out: IC50 growth inhibition MV4-11
Protocol: as §1

SEM cells = assay: In vitro antiproliferative CCK-8 assay, SEM; assay type: cell-based; details: 72 h, read-out: IC50 growth inhibition SEM
Protocol: as §1

THP-1 cells [3] = assay: Colony formation assay, THP-1; assay type: cell-based; details: 12 days
Protocol: as §2

THP-1 cells [4] = assay: In vitro antiproliferative CCK-8 assay, THP-1; assay type: cell-based; details: Homo sapiens
Protocol: as §1

C=CC(=O)Nc1ccc(-c2cc(C(=O)N3CCN(c4ccccc4F)CC3)c3ccccc3n2)cc1 [Compound P6, N-(4-{4-[4-(2-Fluoro-phenyl)-piperazine-1-carbonyl]-quinolin-2-yl}-phenyl)-acrylamide]
IC50 (MOLM-13 cells): 980 nM | activity at 0.01 µM (SIRT3; Repeat1): 101% | activity at 0.01 µM (SIRT3; Repeat2): 99% | activity at 0.033 µM (SIRT3; Repeat1): 98% | activity at 0.033 µM (SIRT3; Repeat2): 97% | activity at 0.1 µM (SIRT3; Repeat1): 104% | activity at 0.1 µM (SIRT3; Repeat2): 95% | activity at 0.333 µM (SIRT3; Repeat1): 95% | activity at 0.333 µM (SIRT3; Repeat2): 88% | activity at 1 µM (SIRT3; Repeat1): 76% | activity at 1 µM (SIRT3; Repeat2): 74% | activity at 3.3 µM (SIRT3; Repeat1): 61% | activity at 3.3 µM (SIRT3; Repeat2): 59% | activity at 10 µM (SIRT3; Repeat1): 38% | activity at 10 µM (SIRT3; Repeat2): 38% | activity at 33 µM (SIRT3; Repeat1): 33% | activity at 33 µM (SIRT3; Repeat2): 31% | activity at 100 µM (SIRT3; Repeat1): 24% | activity at 100 µM (SIRT3; Repeat2): 21% | inhibition at 10 µM (SIRT3; dose of 10 μM, mean of three experiments, read-out: SIRT3 percentage inhibitory rate): 65.2 ± 3.26% | selectivity among SIRT1-3 (SIRT3; enzyme selectivity test, SIRT3 vs SIRT1 and SIRT2): can selectively inhibit SIRT3 | IC50 (SIRT3; mean of two experiments): 7200 ± 500 nM | effect on number of colonies [1]: significantly reduce the number of colonies with a dose dependent manner | induction of apoptosis [2]: no significant apoptosis | IC50 (MV4-11 cells): 1900 nM | IC50 (SEM cells): 1790 nM | colony formation percentage (THP-1 cells [3]; THP-1, 0.2 µM): 93.2 | colony formation percentage (THP-1 cells [3]; THP-1, 0.4 µM): 13.4 | colony formation percentage (THP-1 cells [3]; THP-1, 0.8 µM): 4.1 | IC50 (THP-1 cells [4]; 72 h, CCK-8, read-out: IC50 growth inhibition THP-1): 870 nM | inhibition at 1 µM (THP-1 cells [4]; dose of 1 μM, mean of three experiments, read-out: THP-1 percentage inhibitory rate): 85.9 ± 3.42%
